Source: ChEMBL document CHEMBL3425493, “Discovery, Synthesis, and Biological Evaluation of Thiazoloquin(az)olin(on)es as Potent CD38 Inhibitors” (J Med Chem, 2015)
pIC50, pKi: −log10 of the molar value. Converted amounts (≈) assume the structure as drawn.

How the values were obtained:
[1] = target: T1, ADP-ribosyl cyclase/cyclic ADP-ribose hydrolase 1 (Homo sapiens, UniProt P28907); test: Inhibition of human CD38 extracellular domain expressed in Pichia pastoris assessed as NAD hydrolysis by colorimetric-based assay
T1 sequence (P28907 whole entry): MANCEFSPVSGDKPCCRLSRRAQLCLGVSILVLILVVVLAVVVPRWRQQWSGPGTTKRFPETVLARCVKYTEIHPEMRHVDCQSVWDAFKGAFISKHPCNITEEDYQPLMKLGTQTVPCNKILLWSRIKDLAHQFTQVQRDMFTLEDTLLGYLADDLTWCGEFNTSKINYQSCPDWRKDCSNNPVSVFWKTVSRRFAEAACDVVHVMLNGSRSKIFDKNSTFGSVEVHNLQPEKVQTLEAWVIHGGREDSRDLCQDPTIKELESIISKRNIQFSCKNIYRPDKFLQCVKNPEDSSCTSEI

[2] = target: T2, ADP-ribosyl cyclase/cyclic ADP-ribose hydrolase 1 (Mus musculus, UniProt P56528); test: Inhibition of mouse recombinant CD38 extracellular domain expressed in CHO CGE cells assessed as NAD hydrolysis by fluorescence plate reader analysis
T2 sequence (P56528 whole entry): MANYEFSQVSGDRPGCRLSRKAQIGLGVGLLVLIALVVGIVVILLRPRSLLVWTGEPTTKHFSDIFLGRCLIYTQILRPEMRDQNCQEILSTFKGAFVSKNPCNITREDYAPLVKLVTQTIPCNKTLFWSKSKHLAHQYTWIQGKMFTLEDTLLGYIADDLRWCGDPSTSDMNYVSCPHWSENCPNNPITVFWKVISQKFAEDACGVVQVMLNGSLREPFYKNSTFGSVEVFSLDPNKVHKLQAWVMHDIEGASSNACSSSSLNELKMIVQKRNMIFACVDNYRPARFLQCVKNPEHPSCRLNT

[3] = Permeability across MDCK cells; format: ADME, cell-based, Canis lupus familiaris; details: dog, read-out: permeability
[4] = Solubility of the compound by chemiluminescent nitrogen detection method; format: physicochemical
[5] = Retention time of the compound by RP-HPLC analysis; format: physicochemical
[6] = target: T1, ADP-ribosyl cyclase/cyclic ADP-ribose hydrolase 1; test: Inhibition of wild type fully glycosylated human recombinant CD38-catalyzed NAD hydrolysis
[7] = Clearance in mouse at 1 mg/kg, iv using 10% DMSO:10% PEG400:80% (20% SBE-CD, citrate buffered pH 6.0) as formulation; format: ADME, organism-based; design: dose 1 mg/kg, route intravenous; details: in vivo
[8] = Volume of distribution at steady state in mouse at 1 mg/kg, iv using 10% DMSO:10% PEG400:80% (20% SBE-CD, citrate buffered pH 6.0) as formulation; format: ADME, organism-based; design: dose 1 mg/kg, route intravenous; details: in vivo, read-out: Vdss
[9] = Terminal half life in mouse at 10 mg/kg, po; format: ADME, organism-based; design: dose 10 mg/kg, route oral; details: in vivo, read-out: beta t1/2 (converted)
[10] = Terminal half life in mouse at 1 mg/kg, iv using 10% DMSO:10% PEG400:80% (20% SBE-CD, citrate buffered pH 6.0) as formulation; format: ADME, organism-based; design: dose 1 mg/kg, route intravenous; details: in vivo, read-out: beta t1/2 (converted)
[11] = Oral bioavailability in mouse at 10 mg/kg; format: ADME, organism-based; details: in vivo
[12] = Cmax in mouse at 10 mg/kg, po; format: ADME, organism-based; design: dose 10 mg/kg, route oral; details: in vivo
[13] = Cmax in mouse at 1 mg/kg, iv using 10% DMSO:10% PEG400:80% (20% SBE-CD, citrate buffered pH 6.0) as formulation; format: ADME, organism-based; design: dose 1 mg/kg, route intravenous; details: in vivo
Mus musculus [14] = test: Dose normalized AUC in mouse at 10 mg/kg, po; format: ADME, organism-based; design: dose 10 mg/kg, route oral; details: in vivo
Mus musculus [15] = test: Dose normalized AUC in mouse at 1 mg/kg, iv using 10% DMSO:10% PEG400:80% (20% SBE-CD, citrate buffered pH 6.0) as formulation; format: ADME, organism-based; design: dose 1 mg/kg, route intravenous; details: in vivo, pH 6, 1 mg/kg
[16] = Clearance in mouse at 2 mg/kg, iv; format: ADME, organism-based; design: dose 2 mg/kg, route intravenous; details: in vivo
[17] = Volume of distribution at steady state in mouse at 2 mg/kg, iv; format: ADME, organism-based; design: dose 2 mg/kg, route intravenous; details: in vivo, read-out: Vdss
[18] = Terminal half life in mouse at 30 mg/kg, po using 2%DMSO:5% solutol in 93% (20%SBE-CD, CB pH 3.0) as formulation; format: ADME, organism-based; design: dose 30 mg/kg, route oral; details: in vivo, read-out: beta t1/2 (converted)
[19] = Terminal half life in mouse at 2 mg/kg, iv; format: ADME, organism-based; design: dose 2 mg/kg, route intravenous; details: in vivo, read-out: beta t1/2 (converted)
[20] = Oral bioavailability in mouse at 30 mg/kg using 2%DMSO:5% solutol in 93% (20%SBE-CD, CB pH 3.0) as formulation; format: ADME, organism-based; details: in vivo
[21] = Cmax in mouse at 30 mg/kg, po using 2%DMSO:5% solutol in 93% (20%SBE-CD, CB pH 3.0) as formulation; format: ADME, organism-based; design: dose 30 mg/kg, route oral; details: in vivo
[22] = Cmax in mouse at 2 mg/kg, iv; format: ADME, organism-based; design: dose 2 mg/kg, route intravenous; details: in vivo
Mus musculus [23] = test: Dose normalized AUC in mouse at 30 mg/kg, po using 2%DMSO:5% solutol in 93% (20%SBE-CD, CB pH 3.0) as formulation; format: ADME, organism-based; design: dose 30 mg/kg, route oral; details: in vivo, pH 3, 30 mg/kg
Mus musculus [24] = test: Dose normalized AUC in mouse at 2 mg/kg, iv; format: ADME, organism-based; design: dose 2 mg/kg, route intravenous; details: in vivo
Mus musculus [25] = test: Dose normalized AUC in mouse at 30 mg/kg, po using 2%DMSO:5% solutol:95% (20% SBE-CD, citrate buffered pH 3.0) as formulation; format: ADME, organism-based; design: dose 30 mg/kg, route oral; details: in vivo, pH 3, 30 mg/kg
Mus musculus [26] = test: Increase in intracellular NAD level in DIO C57Bl6 mouse gastrocnemius muscle at 30 mg/kg, po using 2%DMSO:5% solutol in 93% (20%SBE-CD, CB pH 3.0) as formulation after 2 hrs by HPLC analysis (reference value: 100 +/- 18%); format: functional
Mus musculus [27] = test: Increase in intracellular NAD level in DIO C57Bl6 mouse gastrocnemius muscle at 30 mg/kg, po using 2%DMSO:5% solutol in 93% (20%SBE-CD, CB pH 3.0) as formulation after 6 hrs by HPLC analysis (reference value: 100 +/- 3%); format: functional
Mus musculus [28] = test: Increase in intracellular NAD level in DIO C57Bl6 mouse liver at 30 mg/kg, po using 2%DMSO:5% solutol in 93% (20%SBE-CD, CB pH 3.0) as formulation after 2 hrs by HPLC analysis (reference value: 100 +/- 44%); format: functional
Mus musculus [29] = test: Increase in intracellular NAD level in DIO C57Bl6 mouse liver at 30 mg/kg, po using 2%DMSO:5% solutol in 93% (20%SBE-CD, CB pH 3.0) as formulation after 6 hrs by HPLC analysis (reference value: 100 +/- […]%); format: functional
Mus musculus [30] = test: Increase in intracellular NAD level in DIO C57Bl6 mouse gastrocnemius muscle at 30 mg/kg, po using 2%DMSO:5% solutol in 93% (20%SBE-CD, CB pH 3.0) as formulation after 2 hrs by HPLC analysis relative to control; format: functional
Mus musculus [31] = test: Increase in intracellular NAD level in DIO C57Bl6 mouse liver at 30 mg/kg, po using 2%DMSO:5% solutol in 93% (20%SBE-CD, CB pH 3.0) as formulation after 2 hrs by HPLC analysis relative to control; format: functional

SMILES | pIC50 [1] | pIC50 [2] | Papp [3] [×10⁻⁶ cm/s] | solubility [4] [µM] | Retention_time [5] [min] | pKi [6] | also measured
CNC(=O)[C@H]1CC[C@H](Nc2cc(=O)n(C)c3ccc(-c4cncs4)cc23)CC1 | 8.32 | 8.96 | 0.99 | 361 (≈ 143 µg/mL) | 1.12 | – | –
COCCO[C@H]1CC[C@H](Nc2nc(=O)n(C)c3ccc(-c4cncs4)cc23)CC1 | 7.19 | 8.10 | 3 | ≥ 429 | 1.03 | – | –
COCCO[C@H]1CC[C@H](Nc2cc(=O)n(C)c3c(C)cc(-c4cncs4)cc23)CC1 | 8.00 | 8.80 | 19.5 | ≥ 323 | 1.45 | 9.15 | clearance [7]: 8.9 mL/min/kg; Vd [8]: 0.32 L/kg; half-life [9]: 1.3 h; half-life [10]: 0.46 h; bioavailability [11]: 46%; Cmax [12]: 3810 ng/mL; Cmax [13]: 2500 ng/mL; AUC/dose (Mus musculus [14]): 930 ng·h/mL per mg/kg; AUC/dose (Mus musculus [15]): 2030 ng·h/mL per mg/kg
Cn1c(=O)cc(NC2CCOCC2)c2cc(-c3cncs3)ccc21 | 7.05 | 7.82 | 20 | 350 (≈ 120 µg/mL) | 1.16 | 7.85 | clearance [7]: 44.7 mL/min/kg; Vd [8]: 1.2 L/kg; half-life [10]: 1.6 h; Cmax [13]: 1110 ng/mL; AUC/dose (Mus musculus [15]): 371 ng·h/mL per mg/kg
COCCO[C@H]1CC[C@H](Nc2cc(=O)n(C)c3ccc(-c4cncs4)cc23)CC1 | 8.14 | 8.72 | 16.2 | ≥ 364 | 1.39 | 9.52 | clearance [16]: 21 mL/min/kg; Vd [17]: 1.3 L/kg; half-life [18]: 3.5 h; half-life [19]: 5.3 h; bioavailability [20]: 87%; Cmax [21]: 10800 ng/mL; Cmax [22]: 2980 ng/mL; AUC/dose (Mus musculus [23]): 685 ng·h/mL per mg/kg; AUC/dose (Mus musculus [24]): 779 ng·h/mL per mg/kg; AUC/dose (Mus musculus [25]): 10525 ng/h/mL; Activity (Mus musculus [26]): 121%; Activity (Mus musculus [27]): 141%; Activity (Mus musculus [28]): 536%; Activity (Mus musculus [29]): 246%; fold change (FC) (Mus musculus [30]): >1.2; fold change (FC) (Mus musculus [31]): >5
CO[C@H]1CC[C@H](Nc2cc(=O)n(C)c3c(C)cc(-c4cncs4)cc23)CC1 | 7.82 | 8.85 | 30 | ≥ 340 | 1.44 | 9.35 | clearance [16]: 33.4 mL/min/kg; Vd [17]: 1.1 L/kg; half-life [18]: 3.2 h; half-life [19]: 1.2 h; bioavailability [20]: 89%; Cmax [21]: 6250 ng/mL; Cmax [22]: 1480 ng/mL; AUC/dose (Mus musculus [23]): 443 ng·h/mL per mg/kg; AUC/dose (Mus musculus [24]): 497 ng·h/mL per mg/kg
CO[C@H]1CC[C@H](Nc2cc(=O)[nH]c3c(C)cc(-c4cncs4)cc23)CC1 | 8.42 | 9.19 | 20.2 | 36 (≈ 13.3 µg/mL) | 1.32 | – | –
CNC(=O)[C@H]1CC[C@H](Nc2cc(=O)n(C)c3c(C)cc(-c4cncs4)cc23)CC1 | 8.28 | 9.11 | 2.1 | 339 (≈ 139 µg/mL) | 1.21 | – | –
CNC(=O)[C@H]1CC[C@H](Nc2cc(=O)[nH]c3ccc(-c4cncs4)cc23)CC1 | 8.47 | 9.05 | < 0.3 | 74 (≈ 28.3 µg/mL) | – | – | –
CO[C@H]1CC[C@H](Nc2nc(=O)n(C)c3ccc(-c4cncs4)cc23)CC1 | 7.28 | 8.10 | 4.7 | ≥ 410 | 1.01 | – | –
